Measurements published in ChEMBL document CHEMBL4028841, “The identification of novel acid isostere based inhibitors of the VPS10P family sorting receptor Sortilin” (Bioorg Med Chem Lett, 2017).
Activity calls are given as the source filed them. The calls are words filed in the database; no cut-off is given here.

target: T1, Sortilin (Homo sapiens, UniProt Q99523); assay: Displacement of [3H]-neurotensin from human His6-tagged sortilin pretreated for 30 mins followed by [3H]-neurotensin addition after 6 hrs measured for 360 secs by SPA; settings: not given
T1 sequence (Q99523 whole entry): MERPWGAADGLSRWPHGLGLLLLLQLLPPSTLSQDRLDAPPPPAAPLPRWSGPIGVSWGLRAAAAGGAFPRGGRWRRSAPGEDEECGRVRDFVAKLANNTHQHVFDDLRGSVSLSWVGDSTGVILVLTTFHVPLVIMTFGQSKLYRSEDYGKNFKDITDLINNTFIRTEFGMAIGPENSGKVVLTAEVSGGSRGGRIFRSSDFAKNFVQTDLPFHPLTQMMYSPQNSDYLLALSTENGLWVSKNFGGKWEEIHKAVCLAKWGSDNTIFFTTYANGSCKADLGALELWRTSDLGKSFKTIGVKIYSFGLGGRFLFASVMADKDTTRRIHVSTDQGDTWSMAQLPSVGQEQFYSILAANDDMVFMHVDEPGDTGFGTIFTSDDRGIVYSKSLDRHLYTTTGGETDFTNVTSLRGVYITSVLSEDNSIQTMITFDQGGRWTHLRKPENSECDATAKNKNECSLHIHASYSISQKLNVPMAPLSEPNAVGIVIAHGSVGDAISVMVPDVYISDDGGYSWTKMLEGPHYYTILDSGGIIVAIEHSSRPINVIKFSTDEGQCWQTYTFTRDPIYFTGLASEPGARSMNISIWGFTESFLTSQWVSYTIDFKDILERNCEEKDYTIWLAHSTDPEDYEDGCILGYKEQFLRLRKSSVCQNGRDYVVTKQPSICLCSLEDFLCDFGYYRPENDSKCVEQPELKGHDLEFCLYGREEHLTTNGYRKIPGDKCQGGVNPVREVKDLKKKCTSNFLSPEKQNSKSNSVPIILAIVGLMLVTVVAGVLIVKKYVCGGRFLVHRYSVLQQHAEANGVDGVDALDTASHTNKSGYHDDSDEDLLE

| IC50 [µM] | SMILES |
| --- | --- |
| 63.1 | CC(C)CCc1n[nH]c(=O)o1 |
| 158 | O=C1CC(c2ccccc2)=NO1 |
| 50.1 | CC(C)CCN1N=NC(=O)C1C(N)=O (stereo not drawn) |
| 3.98 | CC(C)CCN1N=NC(=O)C1C(=O)Nc1cccnc1 (stereo not drawn) |
| 126 | CC(C)CCc1noc(=O)[nH]1 |
| 126 | O=C1CN(Cc2ccccc2)N=N1 |
| 79.4 | CC(C)CCN1N=NC(=O)C1C (stereo not drawn) |
| 20 | CC(C)CCN1N=NC(=O)C1NC(=O)c1ccncc1 (stereo not drawn) |
| 12.6 | Cc1cccc(NC(=O)C2C(=O)N=NN2CCC(C)C)n1 (stereo not drawn) |
| 39.8 | CNC(=O)C1C(=O)N=NN1CCC(C)C (stereo not drawn) |
| 79.4 | O=C1CC(Cc2ccccc2)=NO1 |
| 12.6 | CC(C)CCC1=NOC(=O)C1 |
| 63.1 | CC(C)CCN1N=NC(=O)C1C(=O)Nc1ccncc1 (stereo not drawn) |
| 126 | O=c1[nH]nc(-c2ccccc2)o1 |
| 31.6 | CC(C)CC1=NOC(=O)C1 |
| 12.6 | CC(C)CCN1N=NC(=O)C1NC(=O)c1cccnc1 (stereo not drawn) |
| 63.1 | CC(C)CCN1CC(=O)N=N1 |
| 31.6 | CC(=O)NC1C(=O)N=NN1CCC(C)C (stereo not drawn) |
| 39.8 | Cc1cccc(C(=O)NC2C(=O)N=NN2CCC(C)C)n1 (stereo not drawn) |

target: Sortilin (Homo sapiens) (UniProt Q99523); assay: Displacement of [3H]-neurotensin from human His6-tagged sortilin at 500 uM pretreated for 30 mins followed by [3H]-neurotensin addition after 6 hrs measured for 360 secs by SPA relative to control; settings: not given

| Imax | SMILES |
| --- | --- |
| 54% | O=c1[nH]nc(Cc2ccccc2)o1 |
| inactive | O=C1CC(c2ccc(Cl)cc2)=NO1 |
| 69% | CC(C)CN1CC(=O)N=N1 |
| inactive | O=c1[nH]nc(-c2cccc(Cl)c2)o1 |
| inactive | O=C1CN(c2ccc(Cl)cc2)N=N1 |
| 30% | O=C1CC(c2cccc(Cl)c2)=NO1 |
| 50% | O=C1CN(c2ccccc2)N=N1 |
| inactive | O=C1CN(c2ccccc2Cl)N=N1 |
| 42% | O=c1[nH]c(-c2cccc(Cl)c2)no1 |
| inactive | O=C1CN(c2cccc(Cl)c2)N=N1 |
| inactive | O=c1[nH]c(-c2ccc(Cl)cc2)no1 |
| 57% | CCC1C(=O)N=NN1CCC(C)C (stereo not drawn) |
| < 20% | CC(C)CCN1N=NC(=O)C1C(C)C (stereo not drawn) |
| 35% | Oc1nc(-c2ccccc2)no1 |
| 60% | CC(C)Cc1n[nH]c(=O)o1 |
| inactive | O=c1cc(-c2ccccc2)o[nH]1 |
| inactive | O=c1[nH]c(-c2ccccc2Cl)no1 |
| 37% | O=C1CC(c2ccccc2Cl)=NO1 |
| inactive | O=c1[nH]nc(-c2ccc(Cl)cc2)o1 |
| 63% | O=c1[nH]nc(-c2ccccc2Cl)o1 |
| 55% | O=c1[nH]c(Cc2ccccc2)no1 |

tested on: MDR1; assay: Permeability in MDCK cells expressing human MDR1 at 0.5 uM after 150 mins by LC-MS/MS analysis; format: ADME, cell-based, Canis lupus familiaris; settings: dog, read-out: permeability

| Papp at 2.5 h, 0.5 µM [×10⁻⁶ cm/s] | SMILES |
| --- | --- |
| 2.9 | CC(C)CCN1N=NC(=O)C1C(=O)Nc1cccnc1 (stereo not drawn) |
| < 0.1 | CNC(=O)C1C(=O)N=NN1CCC(C)C (stereo not drawn) |
| < 0.1 | CC(C)CCN1N=NC(=O)C1NC(=O)c1cccnc1 (stereo not drawn) |
| 2.9 | CC(C)CCN1CC(=O)N=N1 |
| < 0.1 | CC(=O)NC1C(=O)N=NN1CCC(C)C (stereo not drawn) |

| SMILES | Papp at 2.5 h, 0.5 µM [×10⁻⁶ cm/s] |
| --- | --- |
| Cc1cccc(NC(=O)c2ccc(C(F)(F)F)cc2C(=O)O)n1 | 0.3 |

tested on: not listed separately; assay: Dissociation constant, pKa of the compound in 29 to 54% methanol; format: physicochemical; settings: not given

| pKa | SMILES |
| --- | --- |
| 7 | CC(C)CCN1CC(=O)N=N1 |
| 6.4 | Cn1nnc(O)c1CC(N)C(=O)O (stereo not drawn) |
